# In US20070010671A1, “Novel quinazoline derivatives and methods of treatment related to the use thereof” (priority 2003, published 2007):
# Target: MCH receptor (Homo sapiens, UniProt Q99705)
# Experiment: High throughput functional screening FLIPR/FDSS6000: inhibition of MCH-evoked intracellular Ca2+ changes
# Assay type: cell-based
# Settings: class by percent of control at 10^-7 M or IC50
# How it was run: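 Antagonism is measured as inhibition of the intracellular calcium rise triggered by 50 nM MCH in cells bearing a constitutively active, non-endogenous form of the receptor. Cells are dye-loaded with Fluo4-AM and exposed to compound for 3 min at 37° C before agonist addition.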
row,SMILES,class
1,Cc1cc(NC(=O)NC[C@H]2CC[C@@H](Nc3nc(N(C)C)c4ccccc4n3)CC2)c([N+](=O)[O-])cc1C [compound 538],2 (Class 2: The value of percent of control at 10^−7 M was from 40% to 60% or the value of IC50 was from 50 nM to 200 nM.)
2,CN(C)c1nc(N[C@H]2CC[C@@H](CNC(=S)Nc3cc(C(F)(F)F)ccc3F)CC2)nc2ccccc12 [compound 641],3 (Class 3: The value of percent of control at 10^−7 M was more than 60% or the value of IC50 was more than 200 nM.)
3,CCC[C@H]1CC[C@H](c2ccc(NC(=S)NC[C@H]3CC[C@@H](Nc4nc(N(C)C)c5ccccc5n4)CC3)cc2)CC1 [compound 601],3 (Class 3: The value of percent of control at 10^−7 M was more than 60% or the value of IC50 was more than 200 nM.)
4,CN(C)c1nc(N[C@H]2CC[C@@H](CNC(=O)Nc3cc(C(F)(F)F)ccc3F)CC2)nc2ccccc12 [compound 496],3 (Class 3: The value of percent of control at 10^−7 M was more than 60% or the value of IC50 was more than 200 nM.)
5,"Cc1ccccc1CNC(=S)N[C@H]1CC[C@@H](Nc2nc(N(C)C)c3ccccc3n2)CC1 [compound 303, N-(cis-4-{[4-(dimethylamino)quinazolin-2-yl]amino}cyclohexyl)-N′-(2-methylbenzyl)thiourea]",2 (Class 2: The value of percent of control at 10^−7 M was from 40% to 60% or the value of IC50 was from 50 nM to 200 nM.)
6,CN(C)c1nc(N[C@H]2CC[C@@H](CNC(=S)NCc3ccc(Cl)c(Cl)c3)CC2)nc2ccccc12 [compound 682],3 (Class 3: The value of percent of control at 10^−7 M was more than 60% or the value of IC50 was more than 200 nM.)
7,Cc1ccc2nc(-c3ccc(NC(=O)NC[C@H]4CC[C@@H](Nc5nc(N(C)C)c6ccccc6n5)CC4)cc3)sc2c1 [compound 771],3 (Class 3: The value of percent of control at 10^−7 M was more than 60% or the value of IC50 was more than 200 nM.)
8,CN(C)c1nc(N[C@H]2CC[C@@H](NC(=S)NCc3ccc(Cl)cc3)CC2)nc2ccccc12 [compound 271],3 (Class 3: The value of percent of control at 10^−7 M was more than 60% or the value of IC50 was more than 200 nM.)
9,"COc1cccc(NC(=S)N[C@H]2CC[C@@H](Nc3nc(N(C)C)c4ccccc4n3)CC2)c1 [compound 228, N-(cis-4-{[4-(dimethylamino)quinazolin-2-yl]amino}cyclohexyl)-N′-(3-methoxyphenyl)thiourea]",2 (Class 2: The value of percent of control at 10^−7 M was from 40% to 60% or the value of IC50 was from 50 nM to 200 nM.)
10,"CN(C)c1nc(N[C@H]2CC[C@@H](CNC(=O)Nc3c(Cl)cccc3Cl)CC2)nc2ccccc12 [compound 483, N-(2,6-dichlorophenyl)-N′-[(cis-4-{[4-(dimethylamino)quinazolin-2-yl]amino}cyclohexyl)methyl]urea]",1 (Class 1: The value of percent of control at 10^−7 M was less than 40% or the value of IC50 was less than 50 nM.)
11,CN(C)c1nc(N[C@H]2CC[C@@H](NC(=S)Nc3ccc4nsnc4c3)CC2)nc2ccccc12 [compound 399],3 (Class 3: The value of percent of control at 10^−7 M was more than 60% or the value of IC50 was more than 200 nM.)
12,"CN(C)c1nc(N[C@H]2CC[C@@H](CNC(=O)NC3CCCC3)CC2)nc2ccccc12 [compound 572, N-cyclopentyl-N′-[(cis-4-{[4-(dimethylamino)quinazolin-2-yl]amino}cyclohexyl)methyl]urea]",2 (Class 2: The value of percent of control at 10^−7 M was from 40% to 60% or the value of IC50 was from 50 nM to 200 nM.)
13,CN(C)c1nc(N[C@H]2CC[C@@H](NC(=S)Nc3cc(Cl)c(Cl)c(Cl)c3Cl)CC2)nc2ccccc12 [compound 243],3 (Class 3: The value of percent of control at 10^−7 M was more than 60% or the value of IC50 was more than 200 nM.)
14,"CN(C)c1nc(N[C@H]2CC[C@@H](CNC(=S)NC(c3ccccc3)c3ccccc3)CC2)nc2ccccc12 [compound 708, N-[(cis-4-{[4-(dimethylamino)quinazolin-2-yl]amino}cyclohexyl)methyl]-N′-(diphenylmethyl)thiourea]",2 (Class 2: The value of percent of control at 10^−7 M was from 40% to 60% or the value of IC50 was from 50 nM to 200 nM.)
15,CN(C)c1nc(N[C@H]2CC[C@@H](CNC(=S)Nc3ccccc3C(F)(F)F)CC2)nc2ccccc12 [compound 632],3 (Class 3: The value of percent of control at 10^−7 M was more than 60% or the value of IC50 was more than 200 nM.)
16,CN(C)c1nc(N[C@H]2CC[C@@H](NC(=S)Nc3ccc(F)c(Cl)c3)CC2)nc2ccccc12 [compound 384],3 (Class 3: The value of percent of control at 10^−7 M was more than 60% or the value of IC50 was more than 200 nM.)
17,CN(C)c1nc(N[C@H]2CC[C@@H](CNC(=O)Nc3ccc(Br)cc3Cl)CC2)nc2ccccc12 [compound 543],3 (Class 3: The value of percent of control at 10^−7 M was more than 60% or the value of IC50 was more than 200 nM.)
18,"Cc1ccc(F)cc1NC(=O)NC[C@H]1CC[C@@H](Nc2nc(N(C)C)c3ccccc3n2)CC1 [compound 567, N-[(cis-4-{[4-(dimethylamino)quinazolin-2-yl]amino}cyclohexyl)methyl]-N′-(5-fluoro-2-methylphenyl)urea]",2 (Class 2: The value of percent of control at 10^−7 M was from 40% to 60% or the value of IC50 was from 50 nM to 200 nM.)
19,"CN(C)c1nc(N[C@H]2CC[C@@H](CNC(=O)Nc3c(F)cccc3F)CC2)nc2ccccc12 [compound 426, N-(2,6-difluorophenyl)-N′-[(cis-4-{[4-(dimethylamino)quinazolin-2-yl]amino}cyclohexyl)methyl]urea]",2 (Class 2: The value of percent of control at 10^−7 M was from 40% to 60% or the value of IC50 was from 50 nM to 200 nM.)

# Same assay, conditions: class by percent of control at 10^-7 M or by IC50; read-out: class
row,SMILES,IC50 [µM]
1,"Cc1cc([N+](=O)[O-])ccc1NC(=O)N[C@H]1CC[C@@H](Nc2nc(N(C)C)c3ccccc3n2)CC1 [compound 108, N-(cis-4-{[4-(dimethylamino)quinazolin-2-yl]amino}cyclohexyl)-N′-(2-methyl-4-nitrophenyl)urea]",< 0.05
2,"CCOc1ccccc1NC(=O)N[C@H]1CC[C@@H](Nc2nc(N(C)C)c3ccccc3n2)CC1 [compound 93, N-(cis-4-{[4-(dimethylamino)quinazolin-2-yl]amino}cyclohexyl)-N′-(2-ethoxyphenyl)urea]",< 0.05
3,CN(C)c1nc(N[C@H]2CC[C@@H](NC(=O)Oc3ccccc3)CC2)nc2ccccc12 [compound 859],> 0.2
4,Cc1cccc(Cl)c1NC(=O)N[C@H]1CC[C@@H](Nc2nc(N(C)C)c3ccccc3n2)CC1 [compound 90],< 0.05
5,"CN(C)c1nc(N[C@H]2CC[C@@H](NC(=O)NCc3ccc(Cl)c(Cl)c3)CC2)nc2ccccc12 [compound 122, N-(3,4-dichlorobenzyl)-N′-(cis-4-{[4-(dimethylamino)quinazolin-2-yl]amino}cyclohexyl)urea]",0.05 to 0.2
6,"CN(C)c1nc(N[C@H]2CC[C@@H](NC(=O)Nc3ccc(F)cc3F)CC2)nc2ccccc12 [compound 21, N-(2,4-difluorophenyl)-N′-(cis-4-{[4-(dimethylamino)quinazolin-2-yl]amino}cyclohexyl)urea]",< 0.05
7,"CN(C)c1nc(N[C@H]2CC[C@@H](NC(=O)NCc3ccc(F)cc3)CC2)nc2ccccc12 [compound 824, N-(cis-4-{[4-(dimethylamino)quinazolin-2-yl]amino}cyclohexyl)-N′-(4-fluorobenzyl)urea]",< 0.05
8,"CN(C)c1nc(N[C@H]2CC[C@@H](NC(=S)Nc3ccc(F)cc3)CC2)nc2ccccc12 [compound 175, N-(cis-4-{[4-(dimethylamino)quinazolin-2-yl]amino}cyclohexyl)-N′-(4-fluorophenyl)thiourea]",0.05 to 0.2
9,"CN(C)c1nc(N[C@H]2CC[C@@H](NC(=O)Nc3cc(C(F)(F)F)ccc3F)CC2)nc2ccccc12 [compound 97, N-(cis-4-{[4-(dimethylamino)quinazolin-2-yl]amino}cyclohexyl)-N′-[2-fluro-5-(trifluoromethyl)phenyl]urea]",> 0.2
10,COC(=O)N[C@H]1CC[C@@H](Nc2nc(N(C)C)c3ccccc3n2)CC1 [compound 862],> 0.2
11,"CCOC(=O)c1ccc(NC(=O)N[C@H]2CC[C@@H](Nc3nc(N(C)C)c4ccccc4n3)CC2)cc1 [compound 30, ethyl 4-({[(cis-4-{[4-(dimethylamino)quinazolin-2-yl]amino}cyclohexyl)amino]carbonyl}amino)benzoate]",0.05 to 0.2

# Same assay, conditions: class by percent of control at 10^−7 M or by IC50; read-out: class
row,SMILES,IC50 [µM]
1,"CN(C)c1nc(N[C@H]2CC[C@@H](NCc3ccc(Br)cc3OC(F)(F)F)C2)nc2ccccc12 [Example 1048, N2-((1S,3R)-3-{[4-bromo-2-(trifluoromethoxy)benzyl]-amino}cyclopentyl)-N4,N4-dimethylquinazoline-2,4-diamine]",> 0.2
2,"CN(C)c1nc(N[C@H]2CC[C@@H](C(=O)Nc3nc(C(C)(C)C)c(Br)s3)CC2)nc2ccccc12 [Example 1199, cis-N-(5-bromo-4-tert-butyl-1,3-thiazol-2-yl)-4-{[4(dimethylamino)quinazolin-2-yl]amino}cyclohexanecarboxamide]",> 0.2
3,"CN(C)c1nc(N[C@H]2CC[C@@H](C(=O)NCc3ccc(OC(F)(F)F)cc3)CC2)nc2cc(F)c(F)cc12 [Example 1004, cis-4-{[4-(dimethylamino)-6,7-difluoroquinazolin-2-yl]amino}-N-[4-(trifluoromethoxy)benzyl]cyclohexanecarboxamide]",< 0.05
4,"CC(NC(=O)[C@H]1CC[C@@H](Nc2nc(N(C)C)c3cc(F)c(F)cc3n2)CC1)c1ccc(Br)cc1 (relative stereo) [Example 1008, cis-N-[1-(4-bromophenyl)ethyl]-4-{[4-(dimethylamino)-6,7-difluoroquinazolin-2-yl]amino}cyclohexanecarboxamide]",0.05 to 0.2
5,"COc1cccc(Oc2ccc(C(=O)N[C@H]3CC[C@@H](Nc4nc(N(C)C)c5ccccc5n4)CC3)cn2)c1 [Example 1056, N-(cis-4-{[4-(dimethylamino)quinazolin-2-yl]amino}cyclohexyl)-6-(3-methoxyphenoxy)nicotinamide]",< 0.05
